The text below walks through data of patent publication US9040528B2, “Chemical compounds 542” (AstraZeneca AB, priority 2008, dated 2015).

pIC50: −log10 of the molar value.

One assay has as its target Escherichia coli DNA gyrase A/B tetramer (Escherichia coli (strain K12), UniProt P0AES4+P0AES6). The experiment in a line: DNA gyrase supercoiling activity fluorescence polarisation assay. It counts as biochemical.
Conditions: not given
As for the experimental part:
DNA Gyrase Supercoiling Activity Fluorescence Polarisation Assay
The supercoiling reactions may be quenched by the addition of 10 microliters/well of 40 nM oligodeoxynucleotide probe in 3× triplex-forming buffer consisting of 150 mM NaCl, and 150 mM sodium acetate at pH 3.5. The oligodeoxynucleotide probe may be 5′-BODIPY-FL-labeled […]. After 60 minutes, the fluorescence anisotropy of the BODIPY-FL may be measured in a Tecan Ultra plate reader, using 485 nm excitation and 535 nm emission filters equipped with polarizers. The IC50 may be determined by nonlinear regression using two control reactions. The first contains no test compound but 0.8% DMSO (100% activity) while the second control reaction contains 5 μM Ciprofloxacin and 0.8% DMSO (0% activity).
Turning to `Cc1nnsc1-c1noc2c(F)c3c(cc12)CC1(C(=O)NC(=O)NC1=O)[C@H]1[C@H](C)O[C@H](C)CN31` (racemic) [Example 72, (2R,4S,4aS)-rel-11-fluoro-2,4-dimethyl-8-(4-methyl-1,2,3-thiadiazol-5-yl)-1,2,4,4a-tetrahydro-2′H,6H-spiro[1,4-oxazino[4,3-a][1,2]oxazolo[4,5-g]quinoline-5,5′-pyrimidine]-2′,4′,6′(1′H,3′H)-trione], the pIC50 is 6.05. Consider `Cc1noc2c(F)c3c(cc12)CC1(C(=O)NC(=O)NC1=O)[C@H]1[C@H](C)O[C@H](C)CN31` (relative stereo) [Example 2, (2R,4S,4aS)-rel-11-fluoro-2,4,8-trimethyl-1,2,4,4a-tetrahydro-2′H,6H-spiro[isoxazolo[4,5-g][1,4]oxazino[4,3-a]quinoline-5,5′-pyrimidine]-2′,4′,6′(1′H,3′H)-trione], for which the negative logarithm of the IC50 (pIC50) is 6.40.

Staying with this assay, now noted: 5 nM enzyme, relaxed plasmid, 0.3 mM ATP, ambient temperature; read-out: E. coli DNA gyrase supercoiling IC50.
With `C[C@@H]1CN2c3c(cc4c(-c5nc(C(=O)N(C)C)cs5)noc4c3F)CC3(C(=O)NC(=O)NC3=O)[C@H]2[C@H](C)O1` (racemic) [Example 86, 2-[(2R,4S,4 aS)-rel-11-fluoro-2,4-dimethyl-2′,4′,6′-trioxo-1,1′,2,3′,4,4′,4a,6′-octahydro-2′H,6H-spiro[1,4-oxazino[4,3-a][1,2]oxazolo[4,5-g]quinoline-5,5′-pyrimidin]-8-yl]-N,N-dimethyl-1,3-thiazole-4-carboxamide], the negative logarithm of the IC50 (pIC50) was 5.30. As for `C[C@@H]1CN2c3c(cc4c(C(F)(F)F)noc4c3F)CC3(C(=O)NC(=O)NC3=O)[C@H]2[C@H](C)O1` (racemic) [Example 92, (2R,4 S,4 aS)-rel-11-fluoro-2,4-dimethyl-8-(trifluoromethyl)-2,4,4a,6-tetrahydro-1H,1′H-spiro[isoxazolo[4,5-g][1,4]oxazino[4,3-a]quinoline-5,5′-pyrimidine]-2′,4′,6′(3′H)-trione], the pIC50 was 5.85. On the same count and under the same terms, as for `C[C@@H]1CN2c3c(cc4c(C(F)F)noc4c3F)CC3(C(=O)NC(=O)NC3=O)[C@H]2[C@H](C)O1` (racemic) [Example 93, (2R,4S,4 aS)-rel-8-(difluoromethyl)-11-fluoro-2,4-dimethyl-2,4,4a,6-tetrahydro-1H,1′H-spiro[isoxazolo[4,5-g][1,4]oxazino[4,3-a]quinoline-5,5′-pyrimidine]-2′,4′,6′(3′H)-trione], the figure is 6.15; as for `C[C@@H]1CN2c3c(cc4c(C(=O)NCC(F)F)noc4c3F)CC3(C(=O)NC(=O)NC3=O)[C@H]2[C@H](C)O1` (racemic) [Example 94, (2R,4 S,4 aS)-rel-N-(2,2-difluoroethyl)-11-fluoro-2,4-dimethyl-2′,4′,6′-trioxo-2,2′,3′,4,4a,4′,6,6′-octahydro-1H,1′H-spiro[isoxazolo[4,5-g][1,4]oxazino[4,3-a]quinoline-5,5′-pyrimidine]-8-carboxamide], 5.80. On the same count and under the same terms, under `C[C@@H]1CN2c3c(cc4c(-c5cnccn5)noc4c3Cl)CC3(C(=O)NC(=O)NC3=O)[C@H]2[C@H](C)O1` (racemic) [Example 120, (2R,4 S,4 aS)-rel-11-chloro-2,4-dimethyl-8-(pyrazin-2-yl)-2,4,4a,6-tetrahydro-1H,1′H-spiro[isoxazolo[4,5-g][1,4]oxazino[4,3-a]quinoline-5,5′-pyrimidine]-2′,4′,6′(3′H)-trione] stands 6.70; under `CCNC(=O)c1noc2c(F)c3c(cc12)CC1(C(=O)NC(=O)NC1=O)[C@H]1[C@H](C)O[C@H](C)CN31` (racemic) [Example 138, (2R,4 S,4 aS)-rel-N-ethyl-11-fluoro-2,4-dimethyl-2′,4′,6′-trioxo-2,2′,3′,4,4a,4′,6,6′-octahydro-1H,1′H-spiro[isoxazolo[4,5-g][1,4]oxazino[4,3-a]quinoline-5,5′-pyrimidine]-8-carboxamide], 5.77. Same read-out and setting: as for `C[C@@H]1CN2c3c(cc4c(C(=O)N5CCC(F)(F)C5)noc4c3F)CC3(C(=O)NC(=O)NC3=O)[C@H]2[C@H](C)O1` (racemic) [Example 158, (2R,4 S,4 aS)-rel-8-(3,3-difluoropyrrolidine-1-carbonyl)-11-fluoro-2,4-dimethyl-2,4,4a,6-tetrahydro-1H,1′H-spiro[isoxazolo[4,5-g][1,4]oxazino[4,3-a]quinoline-5,5′-pyrimidine]-2′,4′,6′(3′H)-trione], the figure is 5.85. Take `C[C@@H]1CN2c3c(cc4c(C(=O)NCc5ccnn5C)noc4c3F)CC3(C(=O)NC(=O)NC3=O)[C@H]2[C@H](C)O1` (racemic) [Example 162, (2R,4 S,4 aS)-rel-11-fluoro-2,4-dimethyl-N-((1-methyl-1H-pyrazol-5-yl)methyl)-2′,4′,6′-trioxo-2,2′,3′,4,4a,4′,6,6′-octahydro-1H,1′H-spiro[isoxazolo[4,5-g][1,4]oxazino[4,3-a]quinoline-5,5′-pyrimidine]-8-carboxamide]: the pIC50 is 5.68.

For `C[C@@H]1CN2c3c(cc4c(N)noc4c3F)CC3(C(=O)NC(=O)NC3=O)[C@H]2[C@H](C)O1` (relative stereo) [Example 1, (2R,4S,4aS)-rel-8-amino-11-fluoro-2,4-dimethyl-1,2,4,4a-tetrahydro-2′H,6H-spiro[isoxazolo[4,5-g][1,4]oxazino[4,3-a]quinoline-5,5′-pyrimidine]-2′,4′,6′(1′H,3′H)-trione], the pIC50 was 6.30. As for `C[C@@H]1CN2c3c(cc4c(-c5ccccc5)noc4c3F)CC3(C(=O)NC(=O)NC3=O)[C@H]2[C@H](C)O1` (relative stereo) [Example 3, (2R,4S,4aS)-rel-11-fluoro-2,4-dimethyl-8-phenyl-1,2,4,4a-tetrahydro-2′H,6H-spiro[isoxazolo[4,5-g][1,4]oxazino[4,3-a]quinoline-5,5′-pyrimidine]-2′,4′,6′(1′H,3′H)-trione], the pIC50 is 6.40. For the compound `C[C@@H]1CN2c3c(cc4c(C5CC5)noc4c3F)CC3(C(=O)NC(=O)NC3=O)[C@H]2[C@H](C)O1` (relative stereo) [Example 4, (2R,4S,4aS)-rel-8-cyclopropyl-11-fluoro-2,4-dimethyl-1,2,4,4a-tetrahydro-2′H,6H-spiro[isoxazolo[4,5-g][1,4]oxazino[4,3-a]quinoline-5,5′-pyrimidine]-2′,4′,6′(1′H,3′H)-trione], the negative logarithm of the IC50 (pIC50) is 6.52. As for `C[C@@H]1CN2c3c(cc4c(-c5ccccn5)noc4c3F)CC3(C(=O)NC(=O)NC3=O)[C@H]2[C@H](C)O1` (relative stereo) [Example 5, (2R,4S,4aS)-rel-11-fluoro-2,4-dimethyl-8-pyridin-2-yl-1,2,4,4a-tetrahydro-2′H,6H-spiro[isoxazolo[4,5-g][1,4]oxazino[4,3-a]quinoline-5,5′-pyrimidine]-2′,4′,6′(1′H,3′H)-trione], the pIC50 is 6.70. For `CC(=O)Nc1noc2c(F)c3c(cc12)CC1(C(=O)NC(=O)NC1=O)[C@H]1[C@H](C)O[C@H](C)CN31` (relative stereo) [Example 6, N-[(2R,4S,4aS)-rel-11-fluoro-2,4-dimethyl-2′,4′,6′-trioxo-1,1′,2,3′,4,4′,4a,6′-octahydro-2′H,6H-spiro[isoxazolo[4,5-g][1,4]oxazino[4,3-a]quinoline-5,5′-pyrimidin]-8-yl]acetamide], the pIC50 is 6.10. Consider `Cc1noc2c(Cl)c3c(cc12)CC1(C(=O)NC(=O)NC1=O)[C@H]1[C@H](C)O[C@H](C)CN31` (relative stereo) [Example 7, (2R,4S,4aS)-rel-11-chloro-2,4,8-trimethyl-1,2,4,4a-tetrahydro-2′H,6H-spiro[1,4-oxazino[4,3-a][1,2]oxazolo[4,5-g]quinoline-5,5′-pyrimidine]-2′,4′,6′(1′H,3′H)-trione], for which the pIC50 is 6.40. Still for that read-out and setting: as for `CC(=O)N1CCN(c2noc3c(F)c4c(cc23)CC2(C(=O)NC(=O)NC2=O)[C@H]2[C@H](C)O[C@H](C)CN42)CC1` (relative stereo) [Example 8, (2R,4S,4aS)-rel-8-(4-acetylpiperazin-1-yl)-11-fluoro-2,4-dimethyl-1,2,4,4a-tetrahydro-2′H,6H-spiro[isoxazolo[4,5-g][1,4]oxazino[4,3-a]quinoline-5,5′-pyrimidine]-2′,4′,6′(1′H,3′H)-trione], the figure is 5.08; as for `C[C@@H]1CN2c3c(cc4c(NCc5nccs5)noc4c3F)CC3(C(=O)NC(=O)NC3=O)[C@H]2[C@H](C)O1` (relative stereo) [Example 10, (2R,4S,4aS)-rel-11-fluoro-2,4-dimethyl-8-[(1,3-thiazol-2-ylmethyl)amino]-1,2,4,4a-tetrahydro-2′H,6H-spiro[1,4-oxazino[4,3-a][1,2]oxazolo[4,5-g]quinoline-5,5′-pyrimidine]-2′,4′,6′(1′H,3′H)-trione], 5.72; as for `C[C@@H]1CN2c3c(cc4c(NCc5c[nH]cn5)noc4c3F)CC3(C(=O)NC(=O)NC3=O)[C@H]2[C@H](C)O1` (relative stereo) [Example 11, (2R,4S,4aS)-rel-11-fluoro-8-[(1H-imidazol-4-ylmethyl)amino]-2,4-dimethyl-1,2,4,4a-tetrahydro-2′H,6H-spiro[1,4-oxazino[4,3-a][1,2]oxazolo[4,5-g]quinoline-5,5′-pyrimidine]-2′,4′,6′(1′H,3′H)-trione], 6.10.

In the case of `C[C@@H]1CN2c3c(cc4c(NCc5cnn(C)c5)noc4c3F)CC3(C(=O)NC(=O)NC3=O)[C@H]2[C@H](C)O1` (relative stereo) [Example 12, (2R,4S,4aS)-rel-11-fluoro-2,4-dimethyl-8-{[(1-methyl-1H-pyrazol-4-yl)methyl]amino}-1,2,4,4a-tetrahydro-2′H,6H-spiro[1,4-oxazino[4,3-a][1,2]oxazolo[4,5-g]quinoline-5,5′-pyrimidine]-2′,4′,6′(1′H,3′H)-trione], the pIC50 is 5.92.
